The values that follow come from ChEMBL document CHEMBL1201862, “PubChem BioAssay data set” (2004).

Structures are written as SMILES.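 Compound exposure: 48 hours, 5 concentrations, 96-well plates. Here, GI50 denotes the concentration required for 50% inhibition of growth.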 Active and inactive are the calls of the source. Rule as the data show it: active = GI50 up to about 1.1 µM and inactive = higher. A value given as a limit tells only on which side of the number the result lay.

The assay relates to Hs-578T. Briefly: NCI anticancer screen, dose series, 48 h.

`c1c[nH]c(CN2CCOCC2)n1`: the GI50 is > 100 µM (inactive).
In the case of `C[N+](C)(C)C1(C(=O)[O-])CC1` it was > 100 µM (inactive); in that of `COCOc1cc(OC)ccc1C/C=N/O`, > 100 µM (inactive).
In the case of `O=C(O)CN1CCN2CCOCCOCCN(CC1)CCN(CC(=O)O)CC2` it was > 100 µM (inactive); in that of `O=C1C(Cl)=C(Oc2ccc([N+](=O)[O-])cc2)C(=O)c2c(O)ccc(O)c21`, > 100 µM (inactive).
Next, `CN(C)/C=N/S(=O)(=O)c1nn2c(C=O)c(-c3ccc(Cl)cc3)nc2s1`: 3.43 µM (inactive).
On to `CCCCOCOc1ccccc1P1(=O)COc2ccccc2OC1`, for which the GI50 was 54 µM (inactive).
Next, `O=C1CC(C(=O)O)Cc2c(Br)ccc(O)c21` (stereo not given): > 100 µM (inactive); `CSc1nc(SC)c2ncn(C3CC(Oc4ccc(C)cc4)C(COc4ccc(C)cc4)O3)c2n1` (stereo not given): > 100 µM (inactive).
Next, `CCc1c(O)nc(Nc2nc3ccccc3[nH]2)[nH]c1=O`: > 100 µM (inactive).
Next, `Oc1c(Br)cc(/C=C/c2cccc(/C=C/c3cc(Br)c(O)c(Br)c3)n2)cc1Br`: 17.5 µM (inactive); `COc1ccc(/N=C/C=C/Nc2ccc(OC)cc2)cc1`: 17.5 µM (inactive); `O=C(O)CN1C(=O)c2ccc(NC(=O)C(=O)O)cc2S1(=O)=O`: > 100 µM (inactive).
Regarding `Cn1c(=O)c2c(nc3n(Cc4ccccc4)c(=O)c(NCCCBr)cn23)n(C)c1=O`, the GI50 was 27.3 µM (inactive).
In the case of `C=CCN1C[C@H](C)N([C@H](c2ccc(C(=O)N(CC)CCO)cc2)c2cccc(OC)c2)C[C@H]1C` it was > 100 µM (inactive); in that of `O=C(C=P(c1ccccc1)(c1ccccc1)c1ccccc1)C12CC3CC(CC(C3)C1)C2`, 16.5 µM (inactive); in that of `C=C1c2nc3ccccc3n2C=C(c2ccc(Cl)cc2)N1c1ccc(OCCN2CCOCC2)cc1`, 19.5 µM (inactive).
Next, `Cc1ccc(-n2cc(-c3ccc(Cl)cc3)c3c(NNC(=S)NCc4ccccc4)ncnc32)cc1`: 60.7 µM (inactive); `C#CC(=O)OCC#CCOC(=O)C#C`: 27.8 µM (inactive); `CCOP(=O)(OCC)C(=C1C=C(C(C)(C)C)C(=O)C(C(C)(C)C)=C1)P(=O)(OCC)OCC`: > 10 µM (inactive).
Take `O=c1[nH]nc(Cc2ccccc2)n1N=C1CCCCC1`: the GI50 was > 100 µM (inactive).
Next, `CN1C(=O)C2(c3ccccc31)C1CC3C(CO1)C1C2C3(CO)CN1C#N` (stereo not given): > 100 µM (inactive); `S=C=Nc1ccc(CSc2nc3ccccc3[nH]2)cc1`: 41.6 µM (inactive).
In the case of `CCOC(=O)C1=NN(c2ccc(C)cc2)C2(c3ccccc3)C=C(c3ccccc3)N(C)CCN12` (stereo not given) it was > 100 µM (inactive); in that of `CN1C(=O)N/C(=C\c2ccc(S(=O)(=O)NN)cc2)C1=O`, > 100 µM (inactive).
Regarding `Oc1cc(O)c2c(c1)OC(c1ccc(O)c(O)c1)C(OC1(c3cc(O)c(O)c(O)c3)Oc3cc(O)cc(O)c3C(O)C1O)C2` (stereo not given), the GI50 is 36.6 µM (inactive).
In the case of `Cc1ccc(S(=O)(=O)NC(CCC(=O)NN)C(=O)NN)cc1` (stereo not given) it was > 100 µM (inactive); in that of `Cn1c2ccccc2c(=S)c2ccccc21`, > 100 µM (inactive).
Next, `Cc1ccc(/C=C2\CN(C)CC3C2=NN(c2ccccc2)C3c2ccc(C)cc2)cc1` (stereo not given): > 100 µM (inactive).
Turning to `CC(C)=CCC[C@](C)(O[C@@H]1O[C@H](CO)[C@@H](O)[C@H](O)[C@H]1O)[C@H]1CC[C@]2(C)[C@@H]1[C@H](O)C[C@@H]1[C@@]3(C)CC[C@H](O)C(C)(C)[C@@H]3[C@@H](O[C@@H]3O[C@H](CO)[C@@H](O)[C@H](O)[C@H]3O[C@@H]3O[C@@H](C)[C@H](O)[C@@H](O)[C@H]3O)C[C@]12C.CC(C)=CCC[C@](C)(O[C@@H]1O[C@H](CO)[C@@H](O)[C@H](O)[C@H]1O)[C@H]1CC[C@]2(C)[C@@H]1[C@H](O)C[C@@H]1[C@@]3(C)CC[C@H](O)C(C)(C)[C@@H]3[C@@H](O[C@@H]3O[C@H](CO)[C@@H](O)[C@H](O)[C@H]3O[C@@H]3O[C@H](CO)[C@@H](O)[C@H](O)[C@H]3O)C[C@]12C`, the GI50 is 51.3 µM (inactive).
